The results in this text go back to ChEMBL document CHEMBL3351864, “Beyond paraquats: dialkyl 3,3'- and 3,4'-bipyridinium amphiphiles as antibacterial agents” (2014).

Where only a bound is given, the exact number is not on record here.

Common to all, as to assay type: functional
The test system of one assay is Enterococcus faecalis. As to the kind of experiment: Antibacterial activity against Enterococcus faecalis OG1RF after 72 hrs by broth microdilution method. (Dilution methods test growth across graded concentrations, often in twofold steps.)
Another assay relates to Escherichia coli. As to the kind of experiment: Antibacterial activity against Escherichia coli MC4100 after 72 hrs by broth microdilution method. The settings on record: MC4100, 72 h.
The next assay deals with Pseudomonas aeruginosa. Description: Antibacterial activity against Pseudomonas aeruginosa PAO1 WT after 72 hrs by broth microdilution method. As to conditions: PAO1, 72 h.
In another assay the test system is Staphylococcus aureus. As to the kind of experiment: Antibacterial activity against Staphylococcus aureus SH1000 after 72 hrs by broth microdilution method. As to conditions: SH1000, 72 h.

In the case of `CCCCCCCCCCCC[n+]1ccc(-c2ccc[n+](CCCCCCCCCCCC)c2)cc1`, the MIC in the assay with Enterococcus faecalis turned out to be 1 µM; with Escherichia coli, 0.5 µM; against Pseudomonas aeruginosa it was 2 µM; against Staphylococcus aureus it was 1 µM.

As for `CCCCCCCCCCCCCC[n+]1ccc(-c2ccc[n+](CCCCCCCCCCCCCC)c2)cc1`, the MIC against Enterococcus faecalis was determined as 1 µM; against Escherichia coli, 2 µM; against Pseudomonas aeruginosa, 16 µM; with Staphylococcus aureus, 2 µM.

With `CCCCCCCC[n+]1cccc(-c2ccc[n+](CCCCCCCC)c2)c1`, the minimum inhibitory concentration (MIC) against Enterococcus faecalis was 125 µM; against Escherichia coli, 250 µM; against Pseudomonas aeruginosa, more than 500 µM; against Staphylococcus aureus, 32 µM.

For the compound `CCCCCCCCCC[n+]1cccc(-c2ccc[n+](CCCCCCCCCC)c2)c1`, the MIC against Enterococcus faecalis is 2 µM; in the assay with Escherichia coli it was 2 µM; with Pseudomonas aeruginosa, 8 µM; against Staphylococcus aureus, 2 µM.

For the compound `CCCCCCCCCCCC[n+]1cccc(-c2ccc[n+](CCCCCCCCCC)c2)c1`, the MIC was 2 µM with Enterococcus faecalis, 2 µM against Escherichia coli, 4 µM in the assay with Pseudomonas aeruginosa and 2 µM against Staphylococcus aureus.

`CCCCCCCCCCC[n+]1cccc(-c2ccc[n+](CCCCCCCCCCC)c2)c1`: the MIC in the assay on Enterococcus faecalis was determined as 1 µM; against Escherichia coli, 1 µM; against Pseudomonas aeruginosa, 2 µM; in the assay on Staphylococcus aureus it was 0.5 µM.

For the compound `CCCCCCCCCCCC[n+]1cccc(-c2ccc[n+](CCCCCCCCCCCC)c2)c1`, the minimum inhibitory concentration (MIC) was found to be 1 µM against Enterococcus faecalis, 1 µM in the assay with Escherichia coli, 2 µM in the assay on Pseudomonas aeruginosa and 1 µM in the assay on Staphylococcus aureus.

As to `CCCCCCCCCCCCCC[n+]1cccc(-c2ccc[n+](CCCCCCCCCCCC)c2)c1`, the MIC in the assay with Enterococcus faecalis turned out to be 1 µM; with Escherichia coli, 2 µM; with Pseudomonas aeruginosa, 8 µM; in the assay with Staphylococcus aureus, 2 µM.

`CCCCCCCCCCCCCC[n+]1cccc(-c2ccc[n+](CCCCCCCCCCCCCC)c2)c1`: the minimum inhibitory concentration (MIC) came to 2 µM in the assay with Enterococcus faecalis, 4 µM against Escherichia coli, 16 µM with Pseudomonas aeruginosa and 2 µM in the assay on Staphylococcus aureus.

Turning to `CCCCCCCCCCCCCCCC[n+]1cccc(-c2ccc[n+](CCCCCCCCCCCCCCCC)c2)c1`, the minimum inhibitory concentration (MIC) in the assay with Enterococcus faecalis came to 1 µM; in the assay on Escherichia coli, 8 µM; with Pseudomonas aeruginosa it was 16 µM; with Staphylococcus aureus it was 2 µM.

Take `CCCCCCCCCCCC[n+]1cccc(-c2cccnc2)c1`: the MIC in the assay with Enterococcus faecalis was 63 µM; in the assay on Escherichia coli, 63 µM; in the assay on Pseudomonas aeruginosa it was 250 µM; against Staphylococcus aureus, 8 µM.

Take `CCCCCCCCCCCC[n+]1cccc(-c2ccc[n+](C)c2)c1`: the minimum inhibitory concentration (MIC) against Enterococcus faecalis came to 125 µM; with Escherichia coli it was 125 µM; in the assay with Pseudomonas aeruginosa, 250 µM; with Staphylococcus aureus, 125 µM.

In the case of `CCCCCCCCCCCC[n+]1cccc(-c2ccc[n+](Cc3ccccc3)c2)c1`, the MIC against Enterococcus faecalis was 63 µM; in the assay with Escherichia coli, 32 µM; against Pseudomonas aeruginosa, 250 µM; against Staphylococcus aureus, 8 µM.

For `CCCCCCCC[n+]1ccc(-c2ccc[n+](CCCCCCCC)c2)cc1`, the MIC in the assay on Enterococcus faecalis was 125 µM; with Escherichia coli it was 125 µM; against Pseudomonas aeruginosa, more than 500 µM; against Staphylococcus aureus, 125 µM.

For `CCCCCCCCCC[n+]1ccc(-c2ccc[n+](CCCCCCCCCC)c2)cc1`, the MIC against Enterococcus faecalis was determined as 2 µM; with Escherichia coli, 2 µM; with Pseudomonas aeruginosa, 16 µM; against Staphylococcus aureus it was 2 µM.

On to `CCCCCCCCCCC[n+]1ccc(-c2ccc[n+](CCCCCCCCCCC)c2)cc1`, for which the MIC against Enterococcus faecalis turned out to be 0.5 µM; against Escherichia coli, 0.5 µM; in the assay on Pseudomonas aeruginosa, 1 µM; with Staphylococcus aureus it was 0.5 µM.

In the case of `CCCCCCCCCCCCCCCC[n+]1ccc(-c2ccc[n+](CCCCCCCCCCCCCCCC)c2)cc1`, the MIC in the assay with Enterococcus faecalis was 4 µM; in the assay on Escherichia coli it was 16 µM; against Pseudomonas aeruginosa, 63 µM; in the assay on Staphylococcus aureus, 2 µM.

As to `CCCCCCCCCCCC[N+](C)(C)Cc1ccccc1` [BENZODODECINIUM CHLORIDE], the MIC was determined as 8 µM against Enterococcus faecalis, 32 µM against Escherichia coli, 63 µM with Pseudomonas aeruginosa and 8 µM with Staphylococcus aureus.

The term MIC denotes the least concentration at which growth counts as inhibited. Low readings indicate a more susceptible organism, high ones a less susceptible organism.
